Assay [1] is described as follows: Dual-Cell β-Catenin Reporter Assay. It counts as cell-based, Mouse. The following applies: Mus musculus, luciferase signal reduced to 50% of DMSO control. On the procedure:
(§1) Dual-Cell β-Catenin Reporter Assay
(§2) Mouse L cells transfected to constitutively produce biologically active murine Wnt-3a, referred to as L-Wnt cells, were purchased from the American Type Culture Collection, ATCC, Manassas, VA (ATCC). These cells were cultured in DMEM supplemented with 10% FCS (Gibco/Invitrogen, Carlsbad, CA), 1% geneticin and 1% sodium pyruvate (Sigma) at 37° C. with 5% CO2. The cells were seeded into 96 well plates and treated with serial dilutions of compound diluted to 0.1% DMSO concentration. After 24 hours, cell supernatants were transferred to a 96 well plate previously seeded with Leading Light® Wnt Reporter Cells, stably transfected with a luciferase gene under control of Wnt pathway response elements. After a further 24 hours, cells are treated with One-glo luciferase assay system (Promega, Madison, WI) and the luminescent signal read by envision. The IC50 of the compound is determined as the concentration that reduces the induced luciferase signal to 50% of the DMSO control.
(§3) The category “+” refers to compounds with an IC50 of >100 μM. The category “++” refers to compounds with an IC50 of 5 to 100 μM. The category “+++” refers to compounds with an IC50<5 μM.
In general terms: Reporter assays use an easily measured gene product as a stand-in for the process of interest.

Assay [2] relates to L-Wnt cells (murine Wnt-3a) / Leading Light Wnt Reporter Cells (luciferase under control of Wnt pathway response elements). Kind of assay: Dual-Cell β-Catenin Reporter Assay. It counts as cell-based, Mouse. Conditions: category of IC50; luciferase signal reduced to 50% of DMSO control. On the procedure:
as §1, §2, §3

By IC50 is commonly meant the concentration that gives 50% inhibition. A higher IC50 goes with lower potency. With `Cc1cc(-c2cnn(CC(=O)Nc3ccc(-c4cnccn4)cn3)c2)ccn1` [compound 3], the IC50 in assay [1] (category of IC50) was 5 to 100 nM; in assay [1], 12.2 nM.

With `CC(C)(C)OC(=O)N1CCN(c2ccc(NC(=O)Cn3cnc(-c4ccnc(C(F)(F)F)c4)c3)nc2)CC1` [compound 6], the IC50 is less than 5 nM in assay [1] (category of IC50) and 0.91 nM in assay [1].

With `Cc1nn(CC(=O)Nc2ccc(-c3ccc(C#N)cc3)cn2)c(C)c1-c1ccnc(C(F)(F)F)c1` [compound 54], the IC50 in assay [1] (category of IC50) is less than 5 nM; in assay [1], 0.14 nM.

In the case of `Cc1c(-c2ccnc(C(F)(F)F)c2)ncn1CC(=O)Nc1ccc(-c2cnccn2)cn1` [compound 74], the IC50 in assay [1] (category of IC50) is less than 5 nM; in assay [1], 0.05 nM.

Regarding `Cc1cc(-c2nn(CC(=O)Nc3ccc(-c4cnccn4)cn3)cc2C)ccn1` [compound 75], the 50% inhibitory concentration (IC50) in assay [1] (category of IC50) was less than 5 nM; in assay [1], 0.61 nM.

Take `Cc1cc(-c2ncn(CC(=O)Nc3ccc(-c4cnccn4)cn3)c2C)ccn1` [compound 87]: the IC50 in assay [2] is less than 5 nM.

For `O=C(Cn1cc(C2=CCOCC2)c(C(F)(F)F)n1)Nc1ccc(-c2cnccn2)cn1` [compound 88], in assay [2], the IC50 is less than 5 nM.

Molecule `Cc1nn(CC(=O)Nc2ccc(-c3cnccn3)cn2)cc1C1=CCOCC1` [compound 89] yielded an IC50 in assay [2] of 5 to 100 nM.

As for `Cc1cc(-c2cn(CC(=O)Nc3ccc(-c4cnccn4)cn3)nc2C)ccn1` [compound 90], in assay [2], the IC50 is less than 5 nM.

`Cc1cc(-c2cn(CC(=O)Nc3ccc(-c4cncnc4)cn3)nc2C)ccn1` [compound 91] yielded an IC50 in assay [2] of less than 5 nM.

On to `Cc1nn(CC(=O)Nc2ccc(-c3cnccn3)cn2)c(C)c1C1CC(C)OC(C)C1` (stereo not shown) [compound 92], for which the IC50 in assay [2] lay within 5 to 100 nM.

The molecule `Cc1nn(CC(=O)Nc2ccc(-c3ccnc(N(C)C)c3)cn2)cc1-c1ccnc(C(F)(F)F)c1` [compound 94] had an IC50 in assay [2] of 5 to 100 nM.

In turn, `O=C(Cn1cc(-c2ccnc(C(F)(F)F)c2)c(C(F)(F)F)n1)Nc1ccc(-c2cnccn2)cn1` [compound 95] had an IC50 in assay [2] of less than 5 nM.

`Cc1nn(CC(=O)Nc2ccc(-c3cncnc3)cn2)c(C)c1C1CC(C)OC(C)C1` (stereo not shown) [compound 96] yielded an IC50 in assay [2] of 5 to 100 nM.

`Cc1nn(CC(=O)Nc2ccc(-c3ncccn3)cn2)c(C)c1C1CC(C)OC(C)C1` (stereo not shown) [compound 97]: the IC50 in assay [2] was 5 to 100 nM.

In assay [2], `COc1ccc(-c2ccc(NC(=O)Cn3cc(-c4ccnc(C(F)(F)F)c4)c(C)n3)nc2)cn1` [compound 98] displayed an IC50 of 5 to 100 nM.

For `Cc1nn(CC(=O)Nc2ccc(-c3ccc(N(C)C)nc3)cn2)cc1-c1ccnc(C(F)(F)F)c1` [compound 99], the IC50 in assay [2] was less than 5 nM.

As to `Cc1nn(CC(=O)Nc2ccc(-c3cnccn3)cn2)c(C)c1-c1ccnc(N(C)C)c1` [compound 100], the IC50 in assay [2] is 5 to 100 nM.

As to `Cc1nn(CC(=O)Nc2ccc(-c3cnccn3)cn2)c(C)c1-c1ccc(N(C)C)nc1` [compound 101], the IC50 in assay [2] fell in the range of 5 to 100 nM.

Consider `Cc1nn(CC(=O)Nc2ccc(-c3cncnc3)cn2)c(C)c1-c1ccc(N(C)C)nc1` [compound 102], for which the IC50 in assay [2] fell in the range of 5 to 100 nM.

`CC(=O)Nc1ccc(-c2ccc(NC(=O)Cn3cc(-c4ccnc(C(F)(F)F)c4)c(C)n3)nc2)cn1` [compound 103] had an IC50 in assay [2] of less than 5 nM.

In turn, `Cc1c(-c2ccnc(C(F)(F)F)c2)ncn1CC(=O)Nc1ccc(-c2cncnc2)cn1` [compound 104] returned an IC50 in assay [2] of less than 5 nM.

With `Cc1c(-c2ccnc(C(F)(F)F)c2)ncn1CC(=O)Nc1ccc(-c2ncccn2)cn1` [compound 105], in assay [2], the IC50 was less than 5 nM.

For `Cc1c(-c2ccnc(C(F)(F)F)c2)ncn1CC(=O)Nc1ccc(-c2ccc(C#N)cc2)cn1` [compound 107], the IC50 was less than 5 nM in assay [1] (category of IC50) and 0.05 nM in assay [1].

Consider `Cc1c(-c2ccnc(C(F)(F)F)c2)ncn1CC(=O)Nc1ccc(-c2cccnc2)cn1` [compound 108], for which, in assay [2], the IC50 is less than 5 nM.

In turn, `Cc1c(-c2ccnc(C(F)(F)F)c2)ncn1CC(=O)Nc1ccc(-c2ccnc(C#N)c2)cn1` [compound 109] had an IC50 in assay [2] of 5 to 100 nM.

Molecule `Cc1c(-c2ccnc(F)c2)ncn1CC(=O)Nc1ccc(-c2cnccn2)cn1` [compound 110] showed an IC50 in assay [2] of less than 5 nM.

Molecule “tert-butyl 4-[1-[2-oxo-2-[(5-pyrazin-2-yl-2-pyridyl)amino]ethyl]pyrazol-4-yl]-3,6-dihydro-2H-pyridine-1-carboxylate [Example 16]” came in with an IC50 in assay [2] of 5 to 100 nM.

These data come from US12202826B2, “N-pyridinyl acetamide derivatives as inhibitors of the Wnt signaling pathway” (Redx Pharma PLC, priority 2014, dated 2025).
